In ChEMBL document CHEMBL4765253, “Discovery, synthesis, and optimization of an N-alkoxy indolylacetamide against HIV-1 carrying NNRTI-resistant mutations from the Isatis indigotica root” (Eur J Med Chem, 2020):

Key:
[1] = test system: HEK-293T; test: Cytotoxicity against human HEK 293T cells assessed as reduction in cell viability measured after 48 hrs by Celltiter-glo assay; format: cell-based
[2] = test system: Human immunodeficiency virus 1; test: Antiviral activity against VSVG/wild-type HIV-1 infected in human HEK 293T cells assessed as inhibition of virus replication preincubated with cells for 15 mins prior to viral infection and measured at 48 hrs post-infection by luciferase reporter gene assay; format: functional, organism-based, HEK293T; settings: Human immunodeficiency virus 1, HEK-293T
[3] = test system: HEK-293T; test: Cytotoxicity against human HEK 293T cells assessed as cell viability at 30 uM measured after 48 hrs by Celltiter-glo assay; format: cell-based
[4] = test system: Human immunodeficiency virus 1; test: Antiviral activity against VSVG/wild-type HIV-1 infected in human HEK 293T cells assessed as viral infection at 10 uM preincubated with cells for 15 mins prior to viral infection and measured at 48 hrs post-infection by luciferase reporter gene assay; format: functional, HEK293T; settings: time 2895 min, 48.25 h
[5] = Selectivity index, ratio of CC50 for human HEK 293T cells to EC50 for VSVG/wild type HIV1 infected in human HEK 293T cells; format: toxicity, cell-based; settings: read-out: Ratio CC50/EC50

| SMILES | CC50 [1] | EC50 [2] | Activity [3] | Activity [4] | selectivity ratio [5] |
| --- | --- | --- | --- | --- | --- |
| COn1cc(CC(=O)Nc2ccc([N+](=O)[O-])cc2)c2ccccc21 | > 30 µM | > 10 µM | 54% | 81.41% | – |
| CCCCCCCOn1cc(CC(=O)Nc2ccccc2Cl)c2ccccc21 | 23.9 µM | 1.95 µM | – | – | 12.2 |
| O=C(Cc1cn(OCc2ccccc2)c2ccccc12)Nc1ccccc1Cl | 16.5 µM | 8.55 µM | – | – | 1.93 |
| COc1cc(NC(=O)Cc2cn(OC)c3ccccc23)cc(OC)c1 | 21.6 µM | > 10 µM | – | 98.07% | – |
| CCOC(=O)c1ccccc1NC(=O)Cc1cn(OC)c2ccccc12 | 29.1 µM | > 10 µM | – | 60.76% | – |
| COn1cc(CC(=O)Nc2ccccc2Br)c2ccccc21 | > 30 µM | 3.2 µM | 83.48% | – | > 9.38 |
| COc1ccccc1NC(=O)Cc1cn(OC)c2ccccc12 | > 30 µM | > 10 µM | 59.57% | 71.46% | – |
| COn1cc(CC(=O)Nc2ccccc2I)c2ccccc21 | > 30 µM | 4.4 µM | 67.04% | – | > 6.82 |
| COn1cc(CC(=O)Nc2ccncc2Cl)c2ccccc21 | 20 µM | 0.53 µM | – | – | 37.7 |
| COn1cc(CC(=O)Nc2ccc(C)cc2)c2ccccc21 | > 30 µM | > 10 µM | 52.47% | 124.35% | – |
| COn1cc(CC(=O)Nc2ccccc2)c2ccccc21 | 28 µM | > 10 µM | – | 113.22% | – |
| COC(=O)c1ccccc1NC(=O)Cc1cn(O)c2ccccc12 | 24.6 µM | > 10 µM | – | 107.1% | – |
| CC(=O)On1cc(CC(=O)Nc2ccccc2Cl)c2ccccc21 | 28.1 µM | > 10 µM | – | 146.89% | – |
| CCCOn1cc(Cc2ccncc2)c2ccccc21 | > 30 µM | > 10 µM | 69.96% | 99.48% | – |
| CCCCCOn1cc(CC(=O)Nc2ccccc2Cl)c2ccccc21 | 18.7 µM | 0.63 µM | – | – | 29.7 |
| COn1cc(CC(=O)Nc2cccc(Cl)c2)c2ccccc21 | > 30 µM | > 10 µM | 61.02% | 113% | – |
| COn1cc(CC(=O)Nc2ccc(Cl)cc2)c2ccccc21 | > 30 µM | > 10 µM | 51.01% | 103.55% | – |
| CCCCOn1cc(CC(=O)Nc2ccccc2Cl)c2ccccc21 | 29.1 µM | 0.64 µM | – | – | 45.5 |
| CCCOn1cc(CC(=O)Nc2ccccc2C(F)(F)F)c2ccccc21 | 24.9 µM | 4.28 µM | – | – | 5.81 |
| COC(=O)c1cccc(NC(=O)Cc2cn(OC)c3ccccc23)c1 | > 30 µM | > 10 µM | 50.46% | 109.33% | – |
| COC(=O)c1ccccc1NC(=O)CCCc1cn(OC)c2ccccc12 | > 30 µM | > 10 µM | 61.31% | 82.07% | – |
| COn1cc(CC(=O)Nc2ccncc2)c2ccccc21 | 14.3 µM | 4.95 µM | – | – | 2.88 |
| COn1cc(CC(=O)Nc2cccnc2)c2ccccc21 | > 30 µM | > 10 µM | 78.7% | 118.26% | – |
| COn1cc(CC(=O)Nc2ccccn2)c2ccccc21 | > 30 µM | > 10 µM | 63.67% | 138.11% | – |
| COc1ccc(NC(=O)Cc2cn(OC)c3ccccc23)cc1 | > 30 µM | > 10 µM | 86.09% | 128.61% | – |

| SMILES | CC50 [1] | EC50 [2] | Activity [3] | Activity [4] | selectivity ratio [5] |
| --- | --- | --- | --- | --- | --- |
| COC(=O)c1ccccc1NC(=O)Cc1c[nH]c2ccccc12 | > 30 µM | > 10 µM | 65.5% | 91.98% | – |
| CCCCCOn1cc(CC(=O)Nc2ccncc2Cl)c2ccccc21 | 22 µM | 0.13 µM | – | – | 169 |
| CCCCCCCCOn1cc(CC(=O)Nc2ccccc2Cl)c2ccccc21 | 22.9 µM | 4.4 µM | – | – | 5.21 |
| CCCCCCCCCCOn1cc(CC(=O)Nc2ccccc2Cl)c2ccccc21 | > 30 µM | > 10 µM | 52.8% | 97.73% | – |
| COc1cccc(NC(=O)Cc2cn(OC)c3ccccc23)c1 | > 30 µM | > 10 µM | 86.68% | 104.29% | – |
| COC(=O)c1ccc(NC(=O)Cc2cn(OC)c3ccccc23)cc1 | > 30 µM | > 10 µM | 72.64% | 104.33% | – |
| COc1ccc(COn2cc(CC(=O)Nc3ccccc3Cl)c3ccccc32)cc1 | 20.3 µM | > 10 µM | – | 73.2% | – |
| COC(=O)c1ccccc1NC(=O)CC1CNc2ccccc21 (stereo unspecified) | > 30 µM | > 10 µM | 71.46% | 82.96% | – |
| CCc1ccccc1NC(=O)Cc1cn(OC)c2ccccc12 | > 30 µM | > 10 µM | 68.5% | 64.33% | – |
| O=C(Cc1cn(OC(=O)c2ccccc2)c2ccccc12)Nc1ccccc1Cl | 29.4 µM | > 10 µM | – | 113.06% | – |
| COn1cc(CC(=O)Nc2ccccc2C)c2ccccc21 | > 30 µM | > 10 µM | 62.74% | 53.31% | – |
| COc1cc(NC(=O)Cc2cn(OC)c3ccccc23)cc(OC)c1OC | 13.9 µM | > 10 µM | – | 47.94% | – |
| CCCOn1cc(CC(=O)Nc2ccncn2)c2ccccc21 | 17.9 µM | 3.3 µM | – | – | 5.43 |
| COC(=O)c1ccccc1NC(=O)CCc1cn(OC)c2ccccc12 | 26.8 µM | > 10 µM | – | 74.25% | – |
| CCOn1cc(CC(=O)Nc2ccccc2Cl)c2ccccc21 | 20.8 µM | 0.86 µM | – | – | 24.2 |
| CCCOn1cc(Cc2c(Cl)cncc2Cl)c2ccccc21 | > 30 µM | > 10 µM | 77.47% | 93.41% | – |
| CCCOn1cc(Cc2ccncc2Cl)c2ccccc21 | > 30 µM | > 10 µM | 67.37% | 65.67% | – |
| CCCCCCCCCOn1cc(CC(=O)Nc2ccccc2Cl)c2ccccc21 | 28.9 µM | > 10 µM | – | 58.3% | – |
| CCCOn1cc(CC(=O)Nc2ccncc2F)c2ccccc21 | 14.1 µM | 0.33 µM | – | – | 42.8 |
| COn1cc(CC(=O)Nc2cc(C)cc(C)c2)c2ccccc21 | > 30 µM | > 10 µM | 62.62% | 87.28% | – |
| COn1cc(CC(=O)Nc2ccc(C)c(C)c2)c2ccccc21 | > 30 µM | > 10 µM | 51.62% | 95.02% | – |
| COn1cc(CC(=O)Nc2ccncc2Br)c2ccccc21 | 18.6 µM | 0.66 µM | – | – | 28.1 |
| COn1cc(CC(=O)Nc2ccccc2F)c2ccccc21 | 28.6 µM | > 10 µM | – | 72.89% | – |
| COn1cc(CC(=O)Nc2ccccc2Cl)c2ccccc21 | 27.8 µM | 3.3 µM | – | – | 8.42 |
